The record followed here is US4421912A, “Cephalosporin derivatives” (Takeda Chemical Industries, Ltd., priority 1973, dated 1983).

Converted amounts (≈) assume the structure as drawn. Read-outs that look alike come from different tables or passages of the source.

The subject of one assay is E. coli 0-111. Put plainly: Antibacterial spectra, agar dilution method. The note with it: Escherichia coli, 0111, E. coli 0-111, Table 11. In kind it is cell-based.
Excerpt: (§1) (mcg/ml., agar dilution method)
as §1
(§2) (mcg/ml, agar dilution method)
(§3) (mcg./ml., agar dilution method)

Another assay has as its system E. coli NIHJ JC-2. Kind of assay: Antibacterial spectra, agar dilution method. The note with it: Escherichia coli. The format is cell-based.
Excerpt: as §1, §1, §2, §3

Another assay relates to S. aureus 1840. Kind of assay: Antibacterial spectra, agar dilution method. The format is cell-based.
Excerpt: as §1, §1, §2, §3

Another assay deals with S. aureus 209P. Put plainly: Antibacterial spectra, agar dilution method. In kind it is cell-based. The note with it: Staphylococcus aureus, 209P, read-out: Antibacterial spectra, S. aureus 209P, Table 11.
Excerpt: as §1, §1, §2, §3

Another assay deals with E. coli T-7. Put plainly: Antibacterial spectra, agar dilution method. In kind it is cell-based. The note with it: Escherichia coli. An excerpt: (§4) |(mcg./ml., agar dilution method)
A further assay deals with K. pneumoniae DT. Kind of assay: Antibacterial spectra, agar dilution method. The format is cell-based. The note with it: Klebsiella pneumoniae, Table 11.
A further assay has as its system P. morganii Eb53. Put plainly: Antibacterial spectra, agar dilution method. The format is cell-based. Particulars: Morganella morganii.
Excerpt: as §2, §3

The test system of another assay is Escherichia coli 0111. Kind of assay: Protective Effect on Infected Mice. The format is in vivo. Particulars: Escherichia coli, 0111, sc, 168 h, male ICR/SLC mice, i.p. E. coli 0111, single subcutaneous dose immediately after challenge, 7 days. An excerpt:
Protective Effect (ED50 * , mg/kg) on Infected Mice
*Test animals: male mice (ICR/SLC) 5 mice per group per single dose
Infection: intraperitoneally with Escherichia coli 0111
Administration: a single subcutaneous dose immediately after challenge
Observation period: 7 days
*Test animals: male mice (ICR/SLC) 5 mice per group single dose

Another assay has as its system P. vulgaris IFO 3988. Kind of assay: Antibacterial spectra, agar dilution method. In kind it is cell-based. Particulars: Proteus vulgaris.
Excerpt: as §4

Where [1] appears, read: NIHJJC2, read-out: Antibacterial spectra, E. coli NIHJ JC-2, Table 11.
The mark [2] stands for this setting: Staphylococcus aureus, 1840, read-out: Antibacterial spectra, S. aureus 1840, Table 11.
[3] abbreviates: T7, E. coli T-7, agar dilution method, Table 11, read-out: Antibacterial spectra.
The mark [4] stands for this setting: P. morganii Eb53, agar dilution method, Table 11, read-out: Antibacterial spectra.
Setting [5] is: Table 12, read-out: Protective Effect (ED50) on Infected Mice.
Where [6] appears, read: EB53, read-out: Antibacterial spectra.
Where [7] appears, read: IFO3988, P. vulgaris IFO 3988, agar dilution method, Table 11, read-out: Antibacterial spectra.
The mark [8] stands for this setting: Staphylococcus aureus, S. aureus 1840, Table 11, read-out: Antibacterial spectra.
Where [9] appears, read: T7, read-out: Antibacterial spectra.

Regarding `Cn1cnnc1SCC1=C(C(=O)O)N2C(=O)C(NC(=O)Cc3csc(N)n3)C2SC1` (stereo not shown) [Compound 39], the MIC is less than 0.05 µg/mL against E. coli 0-111; 0.2 µg/mL (≈ 0.428 µM) in the assay with E. coli NIHJ JC-2 (setting [1]); 1.56 µg/mL (≈ 3.34 µM) with S. aureus 1840 (setting [2]); 0.78 µg/mL (≈ 1.67 µM) in the assay with S. aureus 209P; 25 µg/mL (≈ 53.5 µM) with E. coli T-7 (setting [3]); 0.1 µg/mL (≈ 0.214 µM) with K. pneumoniae DT. Further, in the assay with P. morganii Eb53 (setting [4]), the MIC is 25 µg/mL (≈ 53.5 µM). The ED50 in the assay on Escherichia coli 0111 (Table 14, read-out: ED50) was determined as 0.73 mg/kg.

Consider `CC(=O)OCCSc1nnc(SCC2=C(C(=O)[O-])N3C(=O)C(NC(=O)Cc4csc(N)n4)[C@H]3SC2)s1.[Na+]` (stereo partly shown) [Compound 11, sodium 7-[2-(2-aminothiazol-4-yl)acetamido]-3-[2-(2-acetoxyethylthio)-1,3,4-thiadiazol-5-yl]thiomethyl-3-cephem-4-carboxylate], for which the 50% effective dose (ED50) in the assay on Escherichia coli 0111 (setting [5]) was less than 0.625 mg/kg.

On to `Cc1nnc(SCC2=C(C(=O)O)N3C(=O)C(NC(=O)Cc4csc(N)n4)C3SC2)n1C` (stereo not shown) [Compound 42], for which the MIC against E. coli 0-111 stood at 0.1 µg/mL (≈ 0.208 µM); in the assay on E. coli NIHJ JC-2 (setting [1]) it was 0.2 µg/mL (≈ 0.415 µM); with S. aureus 1840 (setting [2]) it was 1.56 µg/mL (≈ 3.24 µM); in the assay on S. aureus 209P, 0.39 µg/mL (≈ 0.81 µM); in the assay on K. pneumoniae DT it was 0.1 µg/mL (≈ 0.208 µM); in the assay on P. morganii Eb53 (setting [6]) it was 1.56 µg/mL (≈ 3.24 µM). Moreover, in the assay on Escherichia coli 0111 (Table 14, read-out: ED50), the ED50 was found to be 0.38 mg/kg.

As to `CN(C)CCSc1nnc(SCC2=C(C(=O)O)N3C(=O)C(NC(=O)Cc4csc(N)n4)C3SC2)s1` (stereo not shown) [Compound 9], the MIC in the assay on E. coli 0-111 was 0.39 µg/mL (≈ 0.68 µM); with E. coli NIHJ JC-2 (NIHJJC2, E. coli NIHJ JC-2, Table 11, read-out: Antibacterial spectra), 1.56 µg/mL (≈ 2.72 µM); in the assay on S. aureus 1840 (setting [2]) it was 0.78 µg/mL (≈ 1.36 µM); with S. aureus 209P, not above 0.2 µg/mL; in the assay with E. coli T-7 (setting [3]) it was 50 µg/mL (≈ 87.1 µM); in the assay with P. vulgaris IFO 3988 (IFO3988, read-out: Antibacterial spectra) it was 6.25 µg/mL (≈ 10.9 µM). The MIC against K. pneumoniae DT is not above 0.2 µg/mL; in the assay on P. morganii Eb53 (setting [6]) it was less than 0.2 µg/mL. For the same molecule, in the assay on Escherichia coli 0111 (setting [5]), the ED50 amounted to 0.812 mg/kg.

For `Nc1nc(CC(=O)NC2C(=O)N3C(C(=O)O)=C(CSc4nnc(SCCS(=O)(=O)O)s4)CSC23)cs1` (stereo not shown) [Compound 12], the MIC in the assay on E. coli 0-111 was not above 0.2 µg/mL; in the assay with E. coli NIHJ JC-2 (setting [1]), 0.78 µg/mL (≈ 1.28 µM); with S. aureus 1840 (setting [2]) it was 1.56 µg/mL (≈ 2.55 µM); in the assay with S. aureus 209P, 0.39 µg/mL (≈ 0.639 µM); with E. coli T-7 (setting [3]) it was 50 µg/mL (≈ 81.9 µM); with P. vulgaris IFO 3988 (setting [7]) it was not above 0.2 µg/mL. The MIC with K. pneumoniae DT is not above 0.2 µg/mL; in the assay on P. morganii Eb53 (setting [4]), 25 µg/mL (≈ 40.9 µM). Moreover, in the assay with Escherichia coli 0111 (Table 13, read-out: ED50), the ED50 was less than 0.625 mg/kg.

Consider `Nc1nc(CC(=O)NC2C(=O)N3C(C(=O)O)=C(CSc4nnc(NCCO)s4)CSC23)cs1` (stereo not shown) [Compound 17], for which the MIC in the assay on E. coli 0-111 is not above 0.2 µg/mL; with E. coli NIHJ JC-2 (setting [1]), 0.39 µg/mL (≈ 0.736 µM); in the assay on S. aureus 1840 (setting [8]), 3.13 µg/mL (≈ 5.91 µM); in the assay on S. aureus 209P, 0.39 µg/mL (≈ 0.736 µM); in the assay with E. coli T-7 (setting [9]) it was 12.5 µg/mL (≈ 23.6 µM); in the assay with P. vulgaris IFO 3988 (setting [7]), 0.39 µg/mL (≈ 0.736 µM). The MIC with K. pneumoniae DT was not above 0.2 µg/mL; with P. morganii Eb53 (setting [6]) it was 0.78 µg/mL (≈ 1.47 µM). The 50% effective dose (ED50) in the assay on Escherichia coli 0111 (Table 13, read-out: ED50) is less than 0.625 mg/kg.

Take `CN(C)CCNc1nnc(SCC2=C(C(=O)O)N3C(=O)C(NC(=O)Cc4csc(N)n4)C3SC2)s1` (stereo not shown) [Compound 18]: the MIC with E. coli 0-111 is not above 0.2 µg/mL; in the assay with E. coli NIHJ JC-2 (setting [1]) it was 0.78 µg/mL (≈ 1.4 µM); in the assay on S. aureus 1840 (setting [8]) it was 3.13 µg/mL (≈ 5.62 µM); in the assay on S. aureus 209P, 1.56 µg/mL (≈ 2.8 µM); in the assay with E. coli T-7 (setting [9]), 6.25 µg/mL (≈ 11.2 µM); in the assay on P. vulgaris IFO 3988 (setting [7]) it was 1.56 µg/mL (≈ 2.8 µM). In addition, the MIC against K. pneumoniae DT is not above 0.2 µg/mL; in the assay with P. morganii Eb53 (setting [6]), 1.56 µg/mL (≈ 2.8 µM). Moreover, the median effective dose (ED50) in the assay with Escherichia coli 0111 (Table 13, read-out: ED50) is less than 0.625 mg/kg.

In the case of `NC(=O)Cc1nnc(SCC2=C(C(=O)[O-])N3C(=O)C(NC(=O)Cc4csc(N)n4)[C@H]3SC2)s1.[Na+]` (stereo partly shown) [Compound 21, sodium 7-[2-(2-aminothiazol-4-yl)acetamido]-3-(2-carbamoylmethyl-1,3,4-thiadiazol-5-yl)thiomethyl-3-cephem-4-carboxylate], the MIC against E. coli 0-111 is not above 0.2 µg/mL; in the assay on E. coli NIHJ JC-2 (setting [1]) it was 0.39 µg/mL; in the assay on S. aureus 1840 (setting [2]) it was 1.56 µg/mL; in the assay on S. aureus 209P it was not above 0.2 µg/mL; in the assay with E. coli T-7 (setting [9]), 25 µg/mL; with P. vulgaris IFO 3988 (setting [7]) it was not above 0.2 µg/mL. Moreover, the MIC is not above 0.2 µg/mL against K. pneumoniae DT and 0.78 µg/mL in the assay on P. morganii Eb53 (setting [6]). Besides, the median effective dose (ED50) with Escherichia coli 0111 (setting [5]) is less than 0.625 mg/kg.
